# According to patent US9902734B2, “Nicotinic acetylcholine receptor agonists” (priority 2010, dated 2018):
# Entries after “also recorded” stand apart in the source; their conditions may differ.
# Tests used:
# [1] = system: nicotinic acetylcholine receptors (cell lines expressing various combinations of nicotinic-receptor subunits); assay: functional fluorescence bioassay of HPLC fractions across several cell lines; type: cell-based; conditions: for nicotinic receptor agonist activity (time-bioactivity profile of HPLC fractions): several cell lines
# Procedure: (§1) The structures of compounds 1-6 are set forth below.
# (§2) Biological Investigation of Phantasmidine. Semi-preparative HPLC-bioassay analysis was conducted as described previously^9 on the alkaloid fraction of E. anthonyi in several cell lines, including TE-671 (neuromuscular),^16 SH-SY5Y (ganglionic α3*, α3β4*, α7),^15 and several transfected cell lines expressing nicotinic receptor subunit combinations of α2-4 and β2/β4.^12,13,17
# (§3) Collected analytical scale fractions in 96-well plates were reconstituted in situ with 300 μL Hanks balanced salt solution containing 20 mM HEPES at pH 7.4 (HBSS/HEPES) and were used as such. Cell lines expressing various nicotinic receptors were maintained in culture and used for functional fluorescence assays including SH-SY5Y, IMR-32, TE-671, KXα3β4R2, KXα4β4R1, and KXα4β2R2, as previously described.^9,11 Briefly, cells were plated onto 96-well poly-D-lysine-coated plates in Dulbecco's modified minimum essential media supplemented with 10% fetal bovine serum (supplemented with Geneticin G418 for KXα3β4R2, KXα4β4R1, and KXα4β2R2 cells) and grown to near confluence. The media was aspirated and the cells were gently washed with 2×100 μL HBSS/HEPES (pH 7.4). A solution of Molecular Devices no-wash membrane potential dye (30 μL) was added and the cells incubated in the dark at room temperature for 1 h. Plates were read on a FLEXSTATION™ (Molecular Devices) robotic plate reader at an excitation wavelength of 530 nm, emission wavelength of 565 nm, with a cutoff filter at 550 nm. Basal fluorescence was measured for 15 s and 30 μL of reconstituted E. anthonyi fraction in HBSS/HEPES were added. Response was measured for 105 s and 30 μL of 300 μM nicotine were added. The nicotine response was measured for 40 s and 30 μL of 160 mM KCl were added. Maximal fluorescence was measured for 40 s. Average basal fluorescence was subtracted and response was taken as the peak fluorescence for each addition divided by the maximal KCl fluorescence. Responses for each fraction were plotted as a function of time and compared to the UV and total ion chromatograms to identify active components. Preparative-scale isolation was then conducted and structures of active components were elucidated.
# nicotinic receptors = conditions: cited from earlier work
# [2] = target: T1, KXα3β4R2 cells (HEK cells expressing rat α3 and β4 nicotinic receptor subunits) (Rattus norvegicus, UniProt P04757+P12392); type: cell-based
# T1 construct: expressed in transfected cells; host or cells: HEK cells (KXα3β4R2)
# T1 sequence (P12392 21-495): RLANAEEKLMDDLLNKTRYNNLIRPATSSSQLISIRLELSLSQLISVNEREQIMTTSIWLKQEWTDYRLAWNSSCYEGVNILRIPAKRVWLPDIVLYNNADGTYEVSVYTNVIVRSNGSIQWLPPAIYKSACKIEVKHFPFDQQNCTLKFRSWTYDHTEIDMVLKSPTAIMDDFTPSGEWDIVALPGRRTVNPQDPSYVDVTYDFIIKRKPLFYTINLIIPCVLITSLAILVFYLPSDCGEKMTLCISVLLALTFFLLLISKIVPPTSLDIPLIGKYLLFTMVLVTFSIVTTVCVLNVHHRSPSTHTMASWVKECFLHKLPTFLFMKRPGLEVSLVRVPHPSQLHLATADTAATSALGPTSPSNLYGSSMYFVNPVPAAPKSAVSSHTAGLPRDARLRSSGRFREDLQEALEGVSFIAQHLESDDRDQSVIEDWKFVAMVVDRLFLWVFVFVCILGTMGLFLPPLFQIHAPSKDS
# T1 sequence (P04757 26-499): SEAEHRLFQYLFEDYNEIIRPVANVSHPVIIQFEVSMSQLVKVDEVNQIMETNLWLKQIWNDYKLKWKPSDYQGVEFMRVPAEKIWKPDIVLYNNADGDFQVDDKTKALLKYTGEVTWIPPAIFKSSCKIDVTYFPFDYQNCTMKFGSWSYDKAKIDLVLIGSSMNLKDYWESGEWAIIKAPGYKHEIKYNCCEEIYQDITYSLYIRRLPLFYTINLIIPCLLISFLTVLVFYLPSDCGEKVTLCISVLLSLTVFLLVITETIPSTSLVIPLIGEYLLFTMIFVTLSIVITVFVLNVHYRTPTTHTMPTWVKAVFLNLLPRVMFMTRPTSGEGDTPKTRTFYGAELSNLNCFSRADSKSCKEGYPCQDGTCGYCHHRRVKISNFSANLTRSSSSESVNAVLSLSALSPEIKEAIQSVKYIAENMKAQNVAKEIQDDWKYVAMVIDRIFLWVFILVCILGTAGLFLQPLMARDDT
# [3] = system: IMR-32 cells (β4 nicotinic subunits); assay: functional fluorescence (membrane potential dye) bioassay of HPLC fractions; type: cell-based
# Procedure: as §1, §2, §3
# [4] = target: T2, KXα4β2R2 cells (β2-containing) (Rattus norvegicus, UniProt P09483+P12390); assay: as above; type: cell-based
# T2 construct: expressed in transfected cells; host or cells: KXα4β2R2 (G418-selected transfected line)
# T2 sequence (P12390 25-500): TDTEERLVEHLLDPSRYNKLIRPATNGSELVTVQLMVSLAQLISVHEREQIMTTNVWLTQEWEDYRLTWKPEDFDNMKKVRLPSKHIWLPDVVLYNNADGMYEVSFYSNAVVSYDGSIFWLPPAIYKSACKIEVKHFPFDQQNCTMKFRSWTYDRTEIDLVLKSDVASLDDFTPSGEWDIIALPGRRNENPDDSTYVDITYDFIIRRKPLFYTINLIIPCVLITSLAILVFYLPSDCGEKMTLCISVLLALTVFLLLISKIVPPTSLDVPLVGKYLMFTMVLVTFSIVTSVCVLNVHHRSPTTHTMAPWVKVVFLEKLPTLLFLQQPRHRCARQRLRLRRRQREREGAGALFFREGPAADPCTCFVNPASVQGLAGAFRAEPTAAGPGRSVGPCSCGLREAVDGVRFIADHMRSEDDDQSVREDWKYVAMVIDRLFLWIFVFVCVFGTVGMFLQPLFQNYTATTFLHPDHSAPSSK
# T2 sequence (P09483 31-630): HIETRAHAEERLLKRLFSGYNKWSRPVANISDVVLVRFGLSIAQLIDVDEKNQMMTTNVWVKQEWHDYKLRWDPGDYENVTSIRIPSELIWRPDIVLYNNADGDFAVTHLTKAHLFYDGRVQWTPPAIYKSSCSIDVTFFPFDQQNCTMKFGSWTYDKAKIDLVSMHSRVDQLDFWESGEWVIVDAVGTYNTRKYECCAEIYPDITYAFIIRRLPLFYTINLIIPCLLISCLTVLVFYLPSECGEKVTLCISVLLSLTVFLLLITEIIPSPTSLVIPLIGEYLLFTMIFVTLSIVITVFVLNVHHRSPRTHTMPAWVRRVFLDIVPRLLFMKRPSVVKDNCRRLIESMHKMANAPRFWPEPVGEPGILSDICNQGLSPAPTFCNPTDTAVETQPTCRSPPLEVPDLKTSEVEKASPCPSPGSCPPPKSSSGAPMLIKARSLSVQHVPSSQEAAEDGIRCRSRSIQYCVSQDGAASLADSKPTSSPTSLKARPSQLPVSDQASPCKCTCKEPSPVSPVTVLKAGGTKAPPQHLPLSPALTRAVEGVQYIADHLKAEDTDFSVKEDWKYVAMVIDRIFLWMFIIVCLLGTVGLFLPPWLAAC
# Procedure: as §1, §2, §3
# [5] = target: T3, KXα4β4R1 cells (β4 nicotinic subunits) (Rattus norvegicus, UniProt P09483+P12392); assay: as above; type: cell-based
# T3 construct: expressed in transfected cells; host or cells: KXα4β4R1 (G418-selected transfected line)
# T3 sequence (P09483 31-630): as above
# T3 sequence (P12392 21-495): as the sequence (P12392 21-495) above
# Procedure: as §1, §2, §3
# [6] = system: SH-SY5Y cells (ganglionic α3*, α3β4*, α7); assay: as above; type: cell-based
# Procedure: as §1, §2, §3
# [7] = target: T4, TE-671 cells (neuromuscular) (Homo sapiens, UniProt P02708+P07510+Q07001); assay: as above; type: cell-based
# T4 construct: endogenous in cells; host or cells: TE-671
# T4 sequence (P02708 21-457): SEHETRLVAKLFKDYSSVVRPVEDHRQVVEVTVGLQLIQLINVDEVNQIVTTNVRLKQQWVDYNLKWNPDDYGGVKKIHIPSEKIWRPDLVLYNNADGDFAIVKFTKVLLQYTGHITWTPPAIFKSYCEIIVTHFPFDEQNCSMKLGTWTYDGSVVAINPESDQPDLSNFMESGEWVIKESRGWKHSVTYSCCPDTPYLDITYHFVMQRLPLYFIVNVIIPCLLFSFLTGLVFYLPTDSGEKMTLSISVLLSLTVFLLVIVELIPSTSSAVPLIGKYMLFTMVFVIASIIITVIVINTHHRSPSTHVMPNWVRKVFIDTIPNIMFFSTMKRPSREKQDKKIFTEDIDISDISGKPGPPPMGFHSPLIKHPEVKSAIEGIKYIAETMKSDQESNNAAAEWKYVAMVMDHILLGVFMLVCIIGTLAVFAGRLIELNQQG
# T4 sequence (P11230 24-501 partner): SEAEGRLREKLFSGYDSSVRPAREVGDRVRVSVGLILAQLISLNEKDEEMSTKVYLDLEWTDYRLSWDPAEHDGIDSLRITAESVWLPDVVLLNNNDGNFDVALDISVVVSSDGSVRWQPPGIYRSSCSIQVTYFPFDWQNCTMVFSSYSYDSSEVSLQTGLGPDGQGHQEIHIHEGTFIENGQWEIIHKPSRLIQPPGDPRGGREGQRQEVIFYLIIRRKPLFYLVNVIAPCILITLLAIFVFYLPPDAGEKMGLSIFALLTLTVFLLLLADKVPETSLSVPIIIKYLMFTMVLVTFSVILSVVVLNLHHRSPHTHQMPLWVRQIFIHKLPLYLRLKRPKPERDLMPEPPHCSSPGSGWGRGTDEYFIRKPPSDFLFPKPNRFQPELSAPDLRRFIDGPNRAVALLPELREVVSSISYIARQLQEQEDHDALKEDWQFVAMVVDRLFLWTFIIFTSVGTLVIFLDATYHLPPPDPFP
# T4 sequence (P07510 23-517): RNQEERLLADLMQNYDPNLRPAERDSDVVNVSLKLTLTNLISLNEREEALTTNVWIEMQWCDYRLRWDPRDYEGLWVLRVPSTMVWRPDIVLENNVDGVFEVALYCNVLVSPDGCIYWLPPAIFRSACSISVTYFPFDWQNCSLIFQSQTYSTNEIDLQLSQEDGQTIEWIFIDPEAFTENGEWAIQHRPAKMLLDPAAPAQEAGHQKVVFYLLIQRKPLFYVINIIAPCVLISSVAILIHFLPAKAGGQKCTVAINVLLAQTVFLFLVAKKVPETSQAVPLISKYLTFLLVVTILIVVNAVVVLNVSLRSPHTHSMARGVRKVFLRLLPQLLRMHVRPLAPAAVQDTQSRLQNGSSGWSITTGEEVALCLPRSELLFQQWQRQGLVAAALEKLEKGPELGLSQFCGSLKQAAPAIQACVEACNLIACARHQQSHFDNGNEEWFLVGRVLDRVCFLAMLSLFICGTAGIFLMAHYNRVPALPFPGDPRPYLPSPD
# T4 sequence (Q07001 22-517): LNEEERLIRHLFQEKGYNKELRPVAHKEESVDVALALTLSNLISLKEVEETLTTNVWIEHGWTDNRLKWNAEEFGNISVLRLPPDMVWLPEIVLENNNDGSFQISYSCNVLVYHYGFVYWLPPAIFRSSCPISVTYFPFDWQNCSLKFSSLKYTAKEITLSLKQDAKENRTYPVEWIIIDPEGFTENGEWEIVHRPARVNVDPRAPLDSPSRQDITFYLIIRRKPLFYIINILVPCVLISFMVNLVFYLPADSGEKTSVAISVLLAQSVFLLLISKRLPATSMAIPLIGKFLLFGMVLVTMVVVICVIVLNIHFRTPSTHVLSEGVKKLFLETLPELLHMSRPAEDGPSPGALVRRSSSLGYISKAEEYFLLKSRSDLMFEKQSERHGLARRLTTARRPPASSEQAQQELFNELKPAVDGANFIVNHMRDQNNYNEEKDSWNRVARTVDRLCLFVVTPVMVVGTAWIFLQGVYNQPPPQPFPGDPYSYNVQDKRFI
# Procedure: as §1, §2, §3
# [8] = target: T5, K-177 cells (β2-containing) (Homo sapiens, UniProt P17787+P43681); assay: functional fluorescence bioassay of HPLC fractions; type: cell-based
# T5 construct: expressed in transfected cells; host or cells: K-177
# Procedure: as §1, §2
structure (smiles),measurement,setting,value
"CN1C2CCC1C(c1ccc(Cl)nc1)C2 (centres unmarked) [Compound 3, N-methylepibatidine]",nicotinic receptor agonist activity (time-bioactivity profile of HPLC fractions),[1],responsible for the leading edge of the epibatidine activity; also recorded: significant bioactivity
same,potency relative to epibatidine,nicotinic receptors,essentially equipotent with epibatidine
"Clc1ccc(C2CC3CCC2N3)cn1 (centres unmarked) [Compound 1, epibatidine]",nicotinic receptor agonist activity (time-bioactivity profile of HPLC fractions),[1],active in all cell lines to varying degrees; also recorded: greatest activity in the sample regardless of cell line examined
"CC(=O)N[C@H]1CCCN2CCCC[C@@H]12 [Compound 2, epiquinamide, reference compound]",nicotinic-agonist activity of isolated fraction,"[2]; cells expressing α3 and β4 subunits, fractions of E. anthonyi alkaloid extract",artifactual activity from cross contamination with epibatidine
same,nicotinic receptor agonist activity (time-bioactivity profile of HPLC fractions),[1],artifact due to a cross-contamination from 1
"Clc1ccc2c(n1)O[C@@]13CC[C@@H]1NC[C@@H]23 [Compound 4, Phantasmidine]",relative activity compared to 1 (height and area of activity peaks),[2]; KXα3β4R2 cells,higher relative activities
same,relative activity compared to 1 (height and area of activity peaks),[3],higher relative activities
same,relative activity compared to 1 (height and area of activity peaks),[4],less activity
same,relative activity compared to 1 (height and area of activity peaks),[5],higher relative activities
same,relative activity compared to 1 (height and area of activity peaks),[6],higher relative activities
same,relative activity compared to 1 (height and area of activity peaks),[7],less activity
same,relative activity compared to 1 (height and area of activity peaks),[8],less activity
same,subtype selectivity relative to 1,[1]; across several cell lines expressing different nicotinic-receptor subtypes,altered subtype selectivity relative to 1
same,nicotinic receptor agonist activity (time-bioactivity profile of HPLC fractions),[1],significant bioactivity; also recorded: nicotinic agonist
